pIC50: −log10 of the molar value.
Columns and labels:
Aspergillus niger = assay: Antimicrobial activity by agar diffusion method (paper disc); assay type: cell-based
Protocol: The antimicrobial activity of tautomycetin prepared in Example 3 was measured by agar diffusion method. 1×10^8/ml of spore suspension of Aspergillus niger was mixed with glucose-yeast extract agar medium and a paper disc containing tautomycetin was put on the agar plate.

[1] = system: T-cell proliferation in mixed lymphocyte reaction (splenocytes of Balb/C and C57BL/6 mouse); assay: Mouse mixed lymphocyte reaction (MLR), [3H]-thymidine labelling; assay type: cell-based; details: 72 hours + 24 hours [3H]-thymidine
Protocol: After the mixed cell culture was incubated at 37° C. for 72 hours, under an environment of 5% CO2, [^3H]-thymidine was added to the plate and further incubated for 24 hours to investigate the suppressive activity against T-cell proliferation by the degree of thymidine labelling.

IL-2 expression [2] = assay: IL-2 expression reporter (NF-AT/IL-2 promoter β-galactosidase) in transfected Jurkat T cells stimulated by PMA and ionomycin; assay type: cell-based, human
Description: The suppressive activity of tautomycetin against the expression of interleukin-2(IL-2), which plays a crucial role in the immune system, was investigated by treating T-cell proliferating factors such as phorbol-12-myristate-13-acetate(PMA) and ionomycin, which activate protein kinase C to increase the level of diacylglycerol and Ca^2+ in cells: First, to monitor the IL-2 expression level indirectly, transfected Jurkat T cells where the expression of β-galactosidase is driven by the multiple NF-AT(nuclear transcriptional activator) binding sites upstream of minimal IL-2 promoter, were employed and the cells were resuspended in RPMI medium containing 10% fetal bovine serum, 2 mM L-glutamine and 100 unit of penicillin. 1×10^5 of transfected Jurkat T cells were aliquoted to 96-wll microplate, and incubated for 24 hours with the 4 μM ionomycin and 64 nM PMA, while changing the concentration of tautomycetin. Then, centrifugation was carried out to harvest cells, and washed twice with phosphate-buffered saline(PBS). 150 μl of β-galactosidase detecting solution(containing 0.1% Triton X-100, 200 mM sodium phosphate, 2 mM MgCl2, 100 mM β-mercaptoethanol, 1.33 mg/ml ONPG) was added to each well and incubated at 37° C. for 1 hour. 100 μl of 1M sodium carbonate was added to stop the reaction and measured the suppressive activity of tautomycetin against the IL-2 expression by spectrophotometry at a wavelength of 410 nm.

IL-2 expression [3] = assay: IL-2 expression reporter (NF-AT/IL-2 promoter β-galactosidase) in transfected Jurkat T cells stimulated by OKT-3 (TcR-mediated) and PMA; assay type: cell-based, human
Protocol: Monoclonal antibody OKT-3, which binds specifically to ε-chain of T-cell receptor(TcR)-CD3 complex, induces IL-2 expression and specific T-cell proliferation by activating TcR-mediated signal transduction. In this regard, the suppressive activity of tautomycetin against the expression of IL-2 stimulated via TcR was investigated: First, 10 μg of goat anti-mouse IgG was immobilized on 96-well microplate in an ELISA coating buffer(pH 9.0) and 10 μg of monoclonal antibody OKT-3 was also immobilzed thereon. To monitor the IL-2 expression level indirectly, transfected Jurkat T cells where the expression of β-galactosidase is driven by the multiple NF-AT(nuclear transcriptional activator) binding sites upstream of minimal IL-2 promoter, were employed and the cells were resuspended in RPMI medium containing 10% fetal bovine serum, 2 mM L-glutamine and 100 unit of penicillin. 1×10^5 of transfected Jurkat T cells were aliquoted to 96-well microplate, and incubated for 24 hours in a medium containing 64 nM PMA while changing the concentration of tautomycetin. Then, centrifugation was carried out to harvest cells, and washed twice with PBS. 150 μl of β-galactosidase detecting solution(containing 0.1% Triton X-100, 200 mM sodium phosphate, 2 mM MgCl2, 100 mM β-mercaptoethanol, 1.33 mg/ml ONPG) was added to each well and after 1 hour, 100 μl of 1M sodium carbonate was added to stop the reaction and measured the suppressive activity of tautomycetin against the IL-2 expression by spectrophotometry at a wavelength of 410 nm.

[4] = system: tyrosine phosphorylation of intracellular proteins involved in TcR-mediated signal transduction; assay: Immunoblot of tyrosine phosphorylation in CD8-ζ transfected Jurkat T cells stimulated by OKT-8; assay type: cell-based, human; details: 1 μg/ml, 10 hours, Jurkat T CD8-ζ transfectants, OKT-8 stimulation
Protocol: The suppressive activity of tautomycetin against the signal transduction around the membrane was investigated by determining the suppressive activity against the tyrosine phosphorylation of intracellular protein: To analyse the pathway of signal transduction mediated by TcR, Jurkat T cells which were transfected with a recombinant gene fragment, CD8-ζ chimeric DNA, harboring the ecto+transmembrane domain of CD8 and endomembrane domain of CD3-ζ chain, were cultured in RPMI medium containing 10% fetal bovine serum, 2 mM L-glutamine and 100 unit of penicillin. 1 μg/ml of tautomycetin was treated to 1×10^6 of Jurkat T cell transfectants and incubated for 10 hours, then centrifugation was carried out to harvest cells. The cells were washed twice with PBS and then stimulated by 10 μg/ml of OKT-8 and 10 μg/ml of the rabbit anti-mouse IgG antibody. The tyrosine phosphorylation was detected by immunoblot where the protein was isolated by 12.5% SDS-polyacrylamide gel electrophoresis and transferred to Immunobilon-P membrane(Millipore, U.S.A.). The phosphorylated tyrosine residue of intracellular protein or ZAP-70 protein was detected by the treatment of monoclonal antibody 4G10(Upstate Biotech Inc., U.S.A) or monoclonal antibody against ZAP-70(Zymed, U.S.A.), respectively. […]

[5] = system: tyrosine phosphorylation of intracellular proteins (BcR signal transduction); assay: Immunoblot of tyrosine phosphorylation in CD8-Igα/CD8-Igβ transfected BJAB cell (human B-cell); assay type: cell-based; details: BJAB transfectants, stimulation by monoclonal antibody against BcR
[6] = system: cell surface antigen CD69; assay: Activation-induced CD69 expression in Jurkat T cells, flow cytometry; assay type: cell-based, human; details: 1 μg/ml, OKT-3 + PMA, 20 hours
Protocol: 1 μg/ml of tautomycetin was added to 1×10^6 of Jurkat T cells, which were stimulated by 10 μg/ml of OKT-3 monoclonal antibody and 50 ng/ml of PMA, and the cells were incubated for 20 hours. Monoclonal antibody against CD69(anti-CD69 mAb) was treated to the cells to carry out color-reaction and analysed by flow cytometry.

[7] = system: interleukin-2 receptor(IL-2R); assay: Activation-induced interleukin-2 receptor expression on Jurkat T cell surface, flow cytometry; assay type: cell-based, human; details: 1 μg/ml, OKT-3 + PMA
Protocol: To investigate the suppressive activity against interleukin-2 receptor(IL-2R) expression on the cell surface, 1×10^6 of Jurkat T cell treated with 1 μg/ml of tautomycetin was activated by OKT-3 monoclonal antibody and PMA, and color-developed by the aid of monoclonal antibody against IL-2R(anti IL-2R mAb), then analysed by flow cytometry.

[8] = system: graft rejection in heart transplantation; assay: Heart graft experiment (Lewis rat donor, Wistar rat recipient), heartbeat by palpation; assay type: in vivo

## tautomycetin
Aspergillus niger; 48 hours at 28° C., size of growth inhibitory zone
  minimum inhibitory concentration(MIC): less than 1 μg/ml
Aspergillus niger; MIC comparison
  antimicrobial strength relative to cyclosporin A: 10 times
[1]
  pIC50: 7.37
IL-2 expression [2]; Jurkat T transfectants, 4 μM ionomycin and 64 nM PMA, 24 hours
  IC50, suppressive activity against IL-2 expression: 3 ng/mL
IL-2 expression [2]; PMA + ionomycin
  suppressive activity against IL-2 expression relative to cyclosporin A: 6 times
IL-2 expression [2]; concentration 0.001 μg/ml, PMA + ionomycin
  Suppressive Activity against IL-2 expression: 12.8
IL-2 expression [2]; concentration 0.01 μg/ml, PMA + ionomycin
  Suppressive Activity against IL-2 expression: 83.9
IL-2 expression [2]; concentration 0.1 μg/ml, PMA + ionomycin
  Suppressive Activity against IL-2 expression: 88
IL-2 expression [2]; concentration 1 μg/ml, PMA + ionomycin
  Suppressive Activity against IL-2 expression: 98
IL-2 expression [3]; Jurkat T transfectants, immobilized OKT-3 and 64 nM PMA, 24 hours
  IC50, suppressive activity against IL-2 expression: 6.6e-06 ng/mL
IL-2 expression [3]; OKT-3 + PMA
  suppressive activity against IL-2 expression relative to cyclosporin A: 100 times
IL-2 expression [3]; concentration 10^−7 μg/ml, OKT-3 + PMA
  Suppressive Activity against IL-2 expression: 74.8
IL-2 expression [3]; concentration 10^−8 μg/ml, OKT-3 + PMA
  Suppressive Activity against IL-2 expression: 46.8
IL-2 expression [3]; concentration 10^−9 μg/ml, OKT-3 + PMA
  Suppressive Activity against IL-2 expression: 37.5
[4]
  tyrosine phosphorylation of intracellular proteins (TcR-mediated signal transduction), except for ZAP-70: inhibited
[5]
  tyrosine phosphorylation of intracellular proteins in B-cell: does not inhibit
[6]
  activation-induced expression of cell surface antigen CD69: suppresses the expression of cell surface antigen CD69
[7]
  activation-induced expression of IL-2R on the cell surface: suppresses the expression of IL-2R on the cell surface more effectively than cyclosporin A
[8]; i.p., injection formula of Example 11
  concentration sustaining the heart movement, as fraction of cyclosporin A: 1/50
[8]; i.v., injection formula of Example 12
  concentration sustaining the heart movement, as fraction of cyclosporin A: 1/500

— patent publication US6608045B2 (priority 1998, dated 2003)
